{"source": "patent US9212201B2", "about": "“Antifungal and antiparasitic polyene macrolides” (priority 2010, dated 2015)", "experiment_in_all_cases": "In vitro antifungal susceptibility CLSI M27-A2 (MIC, MFC)", "assay_type_in_all_cases": "cell-based", "key": {"C. kefyr": {"system": "C. kefyr", "details": "C. kefyr (10)"}, "C. krusei": {"system": "C. krusei", "details": "C. krusei (10)"}, "C. tropicalis": {"system": "C. tropicalis", "details": "C. tropicalis (10)"}, "C. parapsilosis": {"system": "C. parapsilosis", "details": "C. parapsilosis (10)"}, "[1]": {"system": "Other Candida species (C. lipolytica, C. sake, C. sphaerica, C. norvegica)", "details": "Other Candida spp. (4)"}, "C. rugosa": {"system": "C. rugosa", "details": "C. rugosa (2)"}, "C. lusitaniae": {"system": "C. lusitaniae", "details": "C. lusitaniae (10)"}, "C. glabrata": {"system": "C. glabrata", "details": "C. glabrata (10)"}, "C. albicans": {"system": "C. albicans", "details": "C. albicans (10)"}, "C. guilliermondii": {"system": "C. guilliermondii", "details": "C. guilliermondii (2)"}}, "data": [{"smiles": "C[C@@H](c1ncncc1F)[C@](O)(Cn1cncn1)c1ccc(F)cc1F", "note": "[Voriconazole, voriconazole]", "values": [{"measurement": "MIC Range", "setting": "C. kefyr", "value": "<0.03 to 16", "unit": "µg/mL"}, {"measurement": "MIC", "setting": "C. kefyr; Kluyveromyces marxianus, read-out: GM (geometric mean MIC)", "value": 1.63, "unit": "µg/mL"}, {"measurement": "MIC50", "setting": "C. kefyr; Kluyveromyces marxianus, read-out: MIC50", "value": "< 0.03", "unit": "µg/mL"}, {"measurement": "MIC90", "setting": "C. kefyr; Kluyveromyces marxianus, read-out: MIC90", "value": 0.6, "unit": "µg/mL"}, {"measurement": "MIC Range", "setting": "C. krusei", "value": "0.25 to 0.5", "unit": "µg/mL"}, {"measurement": "MIC", "setting": "C. krusei; Pichia kudriavzevii, read-out: GM (geometric mean MIC)", "value": 0.425, "unit": "µg/mL"}, {"measurement": "MIC50", "setting": "C. krusei; Pichia kudriavzevii, read-out: MIC50", "value": 0.25, "unit": "µg/mL"}, {"measurement": "MIC90", "setting": "C. krusei; Pichia kudriavzevii, read-out: MIC90", "value": 0.5, "unit": "µg/mL"}, {"measurement": "MIC Range", "setting": "C. tropicalis", "value": "<0.03 to 0.5", "unit": "µg/mL"}, {"measurement": "MIC", "setting": "C. tropicalis; Candida tropicalis, read-out: GM (geometric mean MIC)", "value": 0.13, "unit": "µg/mL"}, {"measurement": "MIC50", "setting": "C. tropicalis; Candida tropicalis, read-out: MIC50", "value": 0.06, "unit": "µg/mL"}, {"measurement": "MIC90", "setting": "C. tropicalis; Candida tropicalis, read-out: MIC90", "value": 0.12, "unit": "µg/mL"}, {"measurement": "MIC Range", "setting": "C. parapsilosis", "value": "<0.03 to 0.12", "unit": "µg/mL"}, {"measurement": "MIC", "setting": "C. parapsilosis; Lodderomyces parapsilosis, read-out: GM (geometric mean MIC)", "value": 0.04, "unit": "µg/mL"}, {"measurement": "MIC50", "setting": "C. parapsilosis; Lodderomyces parapsilosis, read-out: MIC50", "value": "< 0.03", "unit": "µg/mL"}, {"measurement": "MIC90", "setting": "C. parapsilosis; Lodderomyces parapsilosis, read-out: MIC90", "value": 0.03, "unit": "µg/mL"}, {"measurement": "MIC Range", "setting": "[1]", "value": "<0.03 to 1.0", "unit": "µg/mL"}, {"measurement": "MIC", "setting": "[1]; read-out: GM (geometric mean MIC)", "value": 0.39, "unit": "µg/mL"}, {"measurement": "MIC50", "setting": "[1]; read-out: MIC50", "value": 0.06, "unit": "µg/mL"}, {"measurement": "MIC Range", "setting": "C. rugosa", "value": 0.25, "unit": "µg/mL"}, {"measurement": "MIC", "setting": "C. rugosa; Diutina rugosa, read-out: GM (geometric mean MIC)", "value": 0.25, "unit": "µg/mL"}, {"measurement": "MIC Range", "setting": "C. lusitaniae", "value": "<0.03 to 0.06", "unit": "µg/mL"}, {"measurement": "MIC", "setting": "C. lusitaniae; Clavispora lusitaniae, read-out: GM (geometric mean MIC)", "value": 0.03, "unit": "µg/mL"}, {"measurement": "MIC50", "setting": "C. lusitaniae; Clavispora lusitaniae, read-out: MIC50", "value": "< 0.03", "unit": "µg/mL"}, {"measurement": "MIC90", "setting": "C. lusitaniae; Clavispora lusitaniae, read-out: MIC90", "value": 0.03, "unit": "µg/mL"}, {"measurement": "MIC Range", "setting": "C. glabrata", "value": "0.12 to 2", "unit": "µg/mL"}, {"measurement": "MIC", "setting": "C. glabrata; Nakaseomyces glabratus, read-out: GM (geometric mean MIC)", "value": 0.56, "unit": "µg/mL"}, {"measurement": "MIC50", "setting": "C. glabrata; Nakaseomyces glabratus, read-out: MIC50", "value": 0.5, "unit": "µg/mL"}, {"measurement": "MIC90", "setting": "C. glabrata; Nakaseomyces glabratus, read-out: MIC90", "value": 0.5, "unit": "µg/mL"}, {"measurement": "MIC Range", "setting": "C. albicans", "value": "<0.03 to 0.25", "unit": "µg/mL"}, {"measurement": "MIC", "setting": "C. albicans; Candida albicans, read-out: GM (geometric mean MIC)", "value": 0.06, "unit": "µg/mL"}, {"measurement": "MIC50", "setting": "C. albicans; Candida albicans, read-out: MIC50", "value": 0.03, "unit": "µg/mL"}, {"measurement": "MIC90", "setting": "C. albicans; Candida albicans, read-out: MIC90", "value": 0.06, "unit": "µg/mL"}, {"measurement": "MIC Range", "setting": "C. guilliermondii", "value": 0.06, "unit": "µg/mL"}, {"measurement": "MIC", "setting": "C. guilliermondii; Meyerozyma guilliermondii, read-out: GM (geometric mean MIC)", "value": 0.06, "unit": "µg/mL"}]}]}
